According to patent US9079866B2, “Flap modulators” (JANSSEN PHARMACEUTICA NV, priority 2013, dated 2015):
Structures can show the parent of a compound that is named as a salt. Where two headings read alike, the source gives them in different places.

Columns and labels:
human FLAP = human FLAP (Homo sapiens (Human), UniProt P20292); assay: FLAP binding assay (HTRF format)
Summary of the method: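 Samples were run in duplicate on each of two plates and the plate results averaged. Read-out is the HTRF signal ratio.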

[1] = test system: leukotriene pathway in human whole blood (LTB4 levels); assay: Human whole blood assay (A23187-stimulated LTB4); type: cell-based; conditions: read-out: LTB4 IC50 1:1
Summary of the method: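 Single-replicate data from at least one healthy donor: compound pre-incubated 15 min at 37° Celsius in 1:1 RPMI-diluted heparinised blood, followed by 30 min calcium ionophore A23187 (7 μg/mL) challenge at 37° Celsius. LTB4 in plasma quantified by kit; IC50 via 4-parameter equation.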

[2] = Homo sapiens, human whole blood diluted 1:1, A23187-stimulated
[3] = human FLAP wild type, HTRF format, average of two plates, duplicates
[4] = Homo sapiens, human whole blood diluted 1:1 in RPMI, A23187-stimulated LTB4
[5] = read-out: FLAP Binding wild type HTRF Ki

Chain of human FLAP (P20292 whole entry): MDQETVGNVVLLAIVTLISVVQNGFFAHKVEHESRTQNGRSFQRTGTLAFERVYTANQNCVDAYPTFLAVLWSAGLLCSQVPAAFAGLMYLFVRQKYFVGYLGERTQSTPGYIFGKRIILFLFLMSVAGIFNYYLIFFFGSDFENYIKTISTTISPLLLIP

| Compound | Ki (human FLAP; wild type FLAP, HTRF format) [nM] | IC50 [1, 2] [nM] | Ki (human FLAP; [3]) [nM] | IC50 [1, 4] [nM] | other results |
| --- | --- | --- | --- | --- | --- |
| Nc1cnc(-c2ccc(-c3ccccc3S(=O)(=O)C3CCCC3)cc2F)cn1 [Example 195, 5-[2′-(Cyclopentylsulfonyl)-3-fluorobiphenyl-4-yl]pyrazin-2-amine] |  |  | 3 | 93 |  |
| Nc1cnc(-c2ccc(-c3ccccc3Cl)cc2F)cn1 [Example 469, 5-(2′-Chloro-3-fluorobiphenyl-4-yl)pyrazin-2-amine] | 250 | 2350 |  |  |  |
| Nc1cnc(-c2ccc(-c3ccccc3S(=O)(=O)NCC3CCC3)cc2F)cn1 [Example 9, 4′-(5-Aminopyrazin-2-yl)-N-(cyclobutylmethyl)-3′-fluorobiphenyl-2-sulfonamide] |  |  | 3 | 60 |  |
| N#CCCN(C1CC1)S(=O)(=O)c1ccccc1-c1ccc(-c2cnc(N)cn2)c(F)c1 [Example 172, 4′-(5-Aminopyrazin-2-yl)-N-(2-cyanoethyl)-N-cyclopropyl-3′-fluorobiphenyl-2-sulfonamide] |  |  | 4 | 20 |  |
| CC(C)S(=O)(=O)Nc1ccccc1-c1ccc(-c2cnc(N)cn2)c(F)c1 [Example 34, N-(4′-(5-Aminopyrazin-2-yl)-3′-fluoro-[1,1′-biphenyl]-2-yl)propane-2-sulfonamide] |  |  | 31 | 334 |  |
| N#CCCN(C1CC1)S(=O)(=O)c1ccccc1-c1ccc(-c2cnc(N)nc2)c(F)c1 [Example 249, 4′-(2-Aminopyrimidin-5-yl)-N-(2-cyanoethyl)-N-cyclopropyl-3′-fluorobiphenyl-2-sulfonamide] |  |  | 59 | 94 |  |
| CC(=O)N1CCC(S(=O)(=O)c2ncccc2-c2ccc(-c3cnc(N)cn3)c(F)c2)CC1 [Example 816, 1-((3-(4-(2-Aminopyrazin-5-yl)-3-fluorophenyl)pyridine-2-yl)sulfonyl)piperidin-1-yl)ethanone hydrogen chloride salt] | 21.8 | 46 |  |  |  |
| Nc1ncc(-c2ccc(-c3ccccc3S(=O)(=O)N[C@H](c3ccccc3)C(F)(F)F)cc2F)cn1 [Example 291, 4′-(2-Aminopyrimidin-5-yl)-3′-fluoro-N-[(1R)-2,2,2-trifluoro-1-phenylethyl]biphenyl-2-sulfonamide trifluoroacetic acid salt] |  |  |  | 421 | Ki (human FLAP; [5]): 7 nM |
| CC(C)(NS(=O)(=O)c1ccccc1-c1ccc(-c2cnc(N)cn2)c(F)c1)C(F)(F)F [Example 13, 4′-(5-Aminopyrazin-2-yl)-3′-fluoro-N-(2,2,2-trifluoro-1,1-dimethylethyl)biphenyl-2-sulfonamide] |  |  |  | 18 | Ki (human FLAP; [5]): 1 nM |
| C[C@@H](O)CNS(=O)(=O)c1ccccc1-c1ccc(-c2cnc(N)nc2)c(F)c1 [Example 278, 4′-(2-Aminopyrimidin-5-yl)-3′-fluoro-N-[(2R)-2-hydroxypropyl]biphenyl-2-sulfonamide-trifluoroacetic acid salt] |  |  | 36 | 95 |  |
| Nc1cnc(-c2ccc(-c3ccccc3S(=O)(=O)N3CCC(CCO)CC3)cc2F)cn1 [Example 69, 2-(1-{[4′-(5-Aminopyrazin-2-yl)-3′-fluorobiphenyl-2-yl]sulfonyl}piperidin-4-yl)ethanol] |  |  | 1 | 8 |  |
| C[C@@H](CO)NC(=O)c1cc(C(F)(F)F)ccc1-c1ccc(-c2cnc(N)cn2)c(F)c1 [Example 786, 2-[4-(5-Aminopyrazin-2-yl)-3-fluoro-phenyl]-N-[(1S)-2-hydroxy-1-methyl-ethyl]-5-(trifluoromethyl)benzamide] | 60.7 | 105 |  |  |  |
| Nc1ncc(-c2ccc(-c3ccccc3S(=O)(=O)N3CCC(F)(F)C3)cn2)cn1 [Example 680, 5-(5-{2-[(3,3-Difluoropyrrolidin-1-yl)sulfonyl]phenyl}pyridin-2-yl)pyrimidin-2-amine trifluoroacetic acid salt] |  | 1050 |  |  | Ki (human FLAP; [5]): 610 nM |
| CC(CO)NS(=O)(=O)c1ccccc1-c1ccc(-c2cnc3[nH]ccc3n2)c(F)c1 (stereo in doubt) [Example 378, 3′-Fluoro-N-[(1R)-2-hydroxy-1-methylethyl]-4′-(5H-pyrrolo[2,3-b]pyrazin-2-yl)biphenyl-2-sulfonamide] |  |  | 1 | 16 |  |
| Nc1cnc(-c2ccc(-c3ccccc3S(=O)(=O)N3CCC(CO)CC3)cc2F)cn1 [Example 68, (1-{[4′-(5-Aminopyrazin-2-yl)-3′-fluorobiphenyl-2-yl]sulfonyl}piperidin-4-yl)methanol] |  |  | 1 | 6 |  |
| CC(CO)NS(=O)(=O)c1ccccc1-c1ccc(-c2ccc(N)nc2)c(F)c1 (stereo in doubt) [Example 352, (R)-4′-(6-Aminopyridin-3-yl)-3′-fluoro-N-(1-hydroxypropan-2-yl)-[1,1′-biphenyl]-2-sulfonamide] |  |  | 16 |  | IC50 ([1]; human whole blood diluted 1:1 in RPMI, A23187-stimulated LTB4): 64 nM |
| Nc1cnc(-c2ccc(-c3ccccc3S(=O)(=O)Nc3ccc(C(F)(F)F)nc3)cc2F)cn1 [Example 163, 4′-(5-Aminopyrazin-2-yl)-3′-fluoro-N-[6-(trifluoromethyl)pyridin-3-yl]biphenyl-2-sulfonamide] |  |  | 1 | 595 |  |
| Nc1cnc(-c2ccc(-c3ccccc3S(=O)(=O)N3CCCC3)cc2F)cn1 [Example 48, 5-[3-Fluoro-2′-(pyrrolidin-1-ylsulfonyl)biphenyl-4-yl]pyrazin-2-amine] |  |  | 11 | 158 |  |

Second part, led by results:

| Ki (human FLAP; wild type FLAP, HTRF format) [nM] | IC50 [1, 2] [nM] | Ki (human FLAP; [3]) [nM] | IC50 [1, 4] [nM] | Compound | other results |
| --- | --- | --- | --- | --- | --- |
| 5 | 23 |  |  | Nc1cnc(-c2ccc(-c3ccccc3Oc3ccnc(N)n3)cc2F)cn1 [Example 533, 4-{[4′-(5-Aminopyrazin-2-yl)-3′-fluorobiphenyl-2-yl]oxy}pyrimidin-2-amine] |  |
| 1 | 6 |  |  | CC(C)(C)NS(=O)(=O)c1ccccc1-c1ccc(-c2cnc(N)c(Cl)n2)c(F)c1 [Example 441, 4′-(5-Amino-6-chloropyrazin-2-yl)-N-tert-butyl-3′-fluorobiphenyl-2-sulfonamide] |  |
|  |  | 2 | 70 | Nc1cnc(-c2ccc(-c3ccccc3S(=O)(=O)N[C@H](c3ccccc3)C(F)(F)F)cc2F)cn1 [Example 18, (R)-4′-(5-Aminopyrazin-2-yl)-3′-fluoro-N-[(1R)-2,2,2-trifluoro-1-phenylethyl]biphenyl-2-sulfonamide] |  |
|  |  | 12 | 67 | Nc1cc(Sc2ccccc2-c2ccc(-c3cnc(N)nc3)c(F)c2)ncn1 [Example 334, 5-{2′-[(6-Aminopyrimidin-4-yl)sulfanyl]-3-fluorobiphenyl-4-yl}pyrimidin-2-amine formate salt] |  |
|  |  | 12 | 138 | Nc1ncc(-c2ccc(-c3ccccc3Sc3ccncn3)cc2F)cn1 [Example 214, 5-[3-Fluoro-2′-(pyrimidin-4-ylsulfanyl)biphenyl-4-yl]pyrimidin-2-amine formate salt] |  |
|  |  | 7 | 154 | Nc1cnc(-c2ccc(-c3ccccc3S(=O)(=O)N3CC[C@H](CO)C3)cc2F)cn1 [Example 112, (S)-(1-{[4′-(5-Aminopyrazin-2-yl)-3′-fluorobiphenyl-2-yl]sulfonyl}pyrrolidin-3-yl)methanol] |  |
| 676 | 1010 |  |  | C[C@H](CO)NS(=O)(=O)c1ccccc1-c1ccc(-c2cnc(N)nc2)nc1 [Example 694, 2-[6-(2-Aminopyrimidin-5-yl)pyridin-3-yl]-N-[(1R)-2-hydroxy-1-methylethyl]benzenesulfonamide] |  |
| 354 | 269 |  |  | CN(c1ccccc1-c1ccc(-c2cnc(N)cn2)c(F)c1)S(C)(=O)=O [Example 490, N-[4′-(5-Aminopyrazin-2-yl)-3′-fluorobiphenyl-2-yl]-N-methylmethanesulfonmide] |  |
| 8 | 323 |  |  | N#Cc1cccnc1COc1ccccc1-c1ccc(-c2cnc(N)cn2)c(F)c1 [Example 531, 2-({[4′-(5-Aminopyrazin-2-yl)-3′-fluorobiphenyl-2-yl]oxy}methyl)pyridine-3-carbonitrile] |  |
| 16 | 738 |  |  | Nc1cnc(-c2ccc(-c3ccccc3S(=O)(=O)c3ccccc3)cc2F)cn1 [Example 477, 5-[3-Fluoro-2′-(phenylsulfonyl)biphenyl-4-yl]pyrazin-2-amine] |  |
|  |  | 13 | 120 | CCN(CC)S(=O)(=O)c1ccccc1-c1ccc(-c2cnc(N)nc2)c(F)c1 [Example 300, 4′-(2-Aminopyrimidin-5-yl)-N,N-diethyl-3′-fluorobiphenyl-2-sulfonamide trifluoroacetic acid salt] |  |
|  |  | 300 | 854 | Nc1cnc(-c2ccc(-c3ccccc3CS(=O)(=O)NCCO)cc2F)cn1 [Example 221, 1-[4′-(5-Aminopyrazin-2-yl)-3′-fluorobiphenyl-2-yl]-N-(2-hydroxyethyl)methanesulfonamide formic acid salt] |  |
| 25.5 | 595 |  |  | COc1c(-c2ccccc2S(=O)(=O)NC(C)(C)C)ccc(-c2cnc(N)cn2)c1F [Example 836, 4′-(5-Aminopyrazin-2-yl)-N-tert-butyl-3′-fluoro-2′-methoxybiphenyl-2-sulfonamide] |  |
|  |  | 14 | 2690 | Nc1cnc(-c2ccc(-c3ccccc3NS(=O)(=O)C(F)(F)F)cc2F)cn1 [Example 41, [4′-(5-Aminopyrazin-2-yl)-3′-fluorobiphenyl-2-yl]-1,1,1-trifluoromethanesulfonamide] |  |
|  |  | 1 | 5 | CN1CCN(S(=O)(=O)c2cc(C(F)(F)F)ccc2-c2ccc(-c3cnc(N)cn3)c(F)c2)CC1 [Example 212, 5-{3-Fluoro-2′-[(4-methylpiperazin-1-yl)sulfonyl]-4′-(trifluoromethyl)biphenyl-4-yl}pyrazin-2-amine] |  |
